Reference: patent US20260115170A1, “Method of Ameliorating a Symptom or a Disease in a Human Caused by Fungus” (ISHIHARA SANGYO KAISHA, LTD., priority 2020, published 2026)
Values after ≈ are worked out from the molar mass of the structure shown.

Key:
Assay type in all cases: cell-based
[1] = system: Trichophyton rubrum (ATCCMYA4607); assay: Test Example 4 antifungal activity test, minimum inhibitory concentration (MIC100); conditions: Sabouraud medium, 32° C. for 72 hours
Method: (§1) Test Microbial Strains: Trichophyton rubrum (ATCCMYA4607), and Microsporum canis (IFM63627)
(§2) The antifungal activity was studied by partially modifying the method of Test Example 2. Trichophyton rubrum was cultured in a Sabouraud medium and Microsporum canis was cultured in a 1/10 Sabouraud medium, at 32° C. for 168 hours to form spores. For Trichophyton rubrum, hyphae were peeled off from the surface of the medium and recovered in a tube, physiological saline (Otsuka Normal Saline; containing 9 g of sodium chloride in 1000 mL) was added, these were wholly admixed using a disposable loop (type 1 (1 μL)) for dispersion, and a spore suspension containing the hyphae was recovered. […] The spore suspensions containing the hyphae of Trichophyton rubrum and Microsporum canis, respectively, were filtered through a cell strainer ((40 μm). The spores were recovered from the filtrate by centrifugation (3500 rpm, 5 minutes) and washed twice with physiological saline, and then a spore suspension was prepared (1×10^7 spores/mL). 10 μL of the spore suspension was inoculated into a Sabouraud medium to which the test compound dissolved in DMSO was added to have a predetermined concentration. Trichophyton rubrum, Microsporum canis was cultured at 32° C. for 72 hours, then the presence or absence of colony growth was investigated, and the minimum inhibitory concentration (MIC100) was determined.

[2] = system: Microsporum canis (IFM63627); assay: as above; conditions: Sabouraud medium, 32° C. for 72 hours
Method: as §1, §2

[3] = system: Trichophyton rubrum (ATCCMYA4607); assay: Test Example 5 antifungal activity test, minimum fungicidal concentration (MFC100) by treatment time
Method: as §1
(§3) Trichophyton rubrum was cultured in a Sabouraud medium and Microsporum canis was cultured in a 1/10 Sabouraud medium, at 32° C. for 168 hours to form spores. For Trichophyton rubrum, hyphae were peeled off from the surface of the medium and recovered in a tube, physiological saline (Otsuka Normal Saline; containing 9 g of sodium chloride in 1000 mL) was added, these were wholly admixed using a disposable loop (type 1 (1 μL)) for dispersion, and a spore suspension containing the hyphae was recovered. For Microsporum canis, 10 mL of physiological saline was added directly onto the medium, and the surface was rubbed using a disposable loop to recover a spore suspension containing hyphae. The spore suspensions containing the hyphae of Trichophyton rubrum and Microsporum canis, respectively, were filtered through a cell strainer (\40 μm). The spores were recovered from the filtrate by centrifugation (3500 rpm, 5 minutes) and washed twice with physiological saline, and then a spore suspension was prepared (1×10^7 spores/mL). 10 μL of the spore suspension was inoculated into 90 μL of physiological saline to which test compound dissolved in DMSO was added to have a predetermined concentration. Every time a predetermined time elapsed, 10 μL of a test liquid containing the spores was collected, the spores were recovered by centrifugation (3500 rpm, 5 minutes) and washed twice with physiological saline, and then a 10 μL spore suspension was prepared. The 10 μL spore suspension was spotted onto a Sabouraud medium and subjected to culturing at 32° C. for 72 hours, the presence or absence of colony growth was investigated, and the minimum fungicidal concentration (MFC100) was determined.

[4] = system: Microsporum canis (IFM63627); assay: as above
Method: as §1, §3

MIC [1]: 5 µg/mL (≈ 19.8 µM)
MIC [2]: 5 µg/mL (≈ 19.8 µM)
SMILES: Cc1ccc(-c2nc(C#N)[nH]c2Cl)cc1Cl [Compound No. 6, 5-Chloro-4-(3-chloro-4-methylphenyl)-1H-imidazole-2-carbonitrile]
MFC ([3]; Treatment time 1 Hour): 50 µg/mL (≈ 198 µM)
MFC ([3]; Treatment time 48 Hours): 10 µg/mL (≈ 39.7 µM)
MFC ([3]; Treatment time 72 Hours): 5 µg/mL (≈ 19.8 µM)
MFC ([4]; Treatment time 24 Hours): 50 µg/mL (≈ 198 µM)
MFC ([4]; Treatment time 96 Hours): 10 µg/mL (≈ 39.7 µM)
